Converted amounts (≈) assume the structure as drawn. Read-outs that look alike come from different tables or passages of the source.
Tests used:
[1] = biological target: TMPKmt (M. tuberculosis TMPK) (Mycobacterium tuberculosis, UniProt P9WKE1); test: biochemical; type: biochemical
[2] = system: Mycobacterium tuberculosis H37Ra; test: IC50 on cultures of Mycobacterium tuberculosis H37Ra; type: cell-based
Description: The IC50 value for three compounds has been measured on cultures of Mycobacterium tuberculosis H37Ra.

VERO cells = test: cytotoxicity on VERO cells; type: cell-based
Procedure: Cytotoxicity: The molecule 22 has been tested for its cytotoxicity on VERO cells. It has been determined that no growth inhibition, and consequently no cytotoxic activity, could be detected up to a concentration of 250 μg/ml of compound 22.

[3] = system: Cc1cn([C@H]2C[C@H](O)[C@@H](COP(=O)(O)O)O2)c(=O)[nH]c1=O; test: purified protein, by the assay type; conditions: other: substrate Km; pH 7.4; 30.0 °C
[4] = substrate: Cc1cn([C@H]2C[C@H](O)[C@@H](COP(=O)(O)O)O2)c(=O)[nH]c1=O; test: purified protein, by the assay type; conditions: other: substrate Km; pH 7.4; 30.0 °C; remark: listed apart in the source
[5] = pH 7.4, read-out: TMPKmt W1002 Ki

Chain of TMPKmt (M. tuberculosis TMPK) (P9WKE1 whole entry, looked up): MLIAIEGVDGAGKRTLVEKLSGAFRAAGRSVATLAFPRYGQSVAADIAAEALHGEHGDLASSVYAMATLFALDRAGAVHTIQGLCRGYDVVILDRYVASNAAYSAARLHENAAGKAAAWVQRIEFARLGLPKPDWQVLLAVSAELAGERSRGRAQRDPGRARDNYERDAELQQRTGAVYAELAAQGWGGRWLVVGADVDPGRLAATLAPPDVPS

Cc1cn(Cc2ccc(C#CCCCC(=O)O)cc2)c(=O)[nH]c1=O [Compound 51, 6-[4-(5-Methyl-2,4-dioxo-3,4-dihydro-2H-pyrimidin-1-yl-methyl)-phenyl]-hexyn-5-oic acid]
Ki ([1]; pH 7.4, read-out: Ki): 119 µM

O=C(O)CCCc1ccc(Cn2cc(Br)c(=O)[nH]c2=O)cc1 [Compound 21, 4-[5-Bromo-(2,4-dioxo-3,4-dihydro-2H-pyrimidin-1-ylmethyl)-phenyl]butyric acid]
IC50 [2]: 50 µg/mL (≈ 136 µM)

CCOC(=O)CCc1ccc(Cn2cc(C)c(=O)[nH]c2=O)cc1 [Compound 19, 3-[4-(5-Methyl-2,4-dioxo-3,4-dihydro-2H-pyrimidin-1-ylmethyl)-phenyl]-propionic acid ethyl ester]
Ki [1, 5]: 265 µM

O=C(O)CCCCCc1ccc(Cn2cc(Cl)c(=O)[nH]c2=O)cc1 [Compound 59, 6-[4-(5-Chloro-2,4-dioxo-3,4-dihydro-2H-pyrimidin-1-yl-methyl)-phenyl]-hexanoic acid]
Ki [1]: 49 µM

Cc1cn(Cc2ccccc2)c(=O)[nH]c1=O [Compound 3, 5-Methyl-1-Benzyl-1H-pyrimidine-2,4-dione]
Ki [1, 5]: 75 µM

Cc1cn(Cc2ccc(CC(F)CC=O)cc2)c(=O)[nH]c1=O (stereo not drawn) [Compound 64, 3-Fluoro-4-[4-(5-methyl-2,4-dioxo-3,4-dihydro-2H-pyrimidin-1-yl-methyl)-phenyl]-butyraldehyde]
Ki [1]: 26 µM

Cc1cn(Cc2ccc(F)c(F)c2)c(=O)[nH]c1=O [Compound 8, 5-Methyl-1-(3,4-difluoro-benzyl)-1H-pyrimidine-2,4-dione]
Ki [1, 5]: 67 µM

Cc1cn(Cc2ccc(CCC(N)=O)cc2)c(=O)[nH]c1=O [Compound 1, 3-[4-(5-Methyl-2,4-dioxo-3,4-dihydro-2H-pyrimidin-1-ylmethyl)-phenyl]-propionamide]
Ki [1, 5]: 110 µM

N#Cc1cn(Cc2cccc(Cl)c2)c(=O)[nH]c1=O [Compound 13]
Ki [1, 5]: 810 µM

Cc1cn(Cc2ccc(CCCC(=O)O)cc2)c(=O)[nH]c1=O [Compound 20, 4-[4-(5-Methyl-2,4-dioxo-3,4-dihydro-2H-pyrimidin-1-yl-methyl)-phenyl]-butyric acid]
Ki [1, 5]: 16.5 µM | IC50 [2]: 100 µg/mL (≈ 331 µM)

Cc1cn(Cc2ccc(CCCCO)cc2)c(=O)[nH]c1=O [Compound 31, 1-[4-(4-Elydroxy-butyl)-benzyl]-5-methyl-1H-pyrimidine-2,4-dione]
Ki ([1]; pH 7.4, read-out: Ki): 63 µM

Cc1cn(Cc2ccc(CCCCCC(N)=O)cc2)c(=O)[nH]c1=O [Compound 54, 6-[4-(5-Methyl-2,4-dioxo-3,4-dihydro-2H-pyrimidin-1-yl-methyl)-phenyl]-hexanoic acid amide]
Ki ([1]; pH 7.4, read-out: Ki): 33 µM

Cc1cn(Cc2ccc(C=CC(N)=O)cc2)c(=O)[nH]c1=O [Compound 14, 3-[4-(5-Methyl-2,4-dioxo-3,4-dihydro-2H-pyrimidin-1-ylmethyl)-phenyl]-acrylamide]
Ki [1, 5]: 240 µM

Cc1cn(Cc2ccc(CCCCCC(=O)O)cc2)c(=O)[nH]c1=O [Compound 22, 6-[4-(5-Methyl-2,4-dioxo-3,4-dihydro-2H-pyrimidin-1-yl-methyl)-phenyl]-hexanoic acid]
Ki [1, 5]: 32 µM | IC50 [2]: 25 µg/mL (≈ 75.7 µM) | concentration up to which no growth inhibition / no cytotoxic activity could be detected (VERO cells): > 250 µg/mL

NC(=O)CCCCCc1ccc(Cn2cc(Br)c(=O)[nH]c2=O)cc1 [Compound 61, 6-[4-(5-Bromo-2,4-dioxo-3,4-dihydro-2H-pyrimidin-1-yl-methyl)-phenyl]-hexanoic acid amide]
Ki ([1]; pH 7.4, read-out: Ki): 24 µM

Cc1cn(Cc2ccc(CC(F)CC(=O)O)cc2)c(=O)[nH]c1=O (stereo not drawn) [Compound 65, 3-Fluoro-4-[4-(5-Methyl-2,4-dioxo-3,4-dihydro-2H-pyrimidin-1-yl-methyl)-phenyl]-butyric acid]
Ki [1]: 63 µM

O=C(O)CCCCc1ccc(Cn2cc(Br)c(=O)[nH]c2=O)cc1 [Compound 48, 5-[4-(5-Bromo-2,4-dioxo-3,4-dihydro-2H-pyrimidin-1-yl-methyl)-phenyl]-pentanoic acid]
Ki ([1]; pH 7.4, read-out: Ki): 47 µM

O=C(O)CCCCCc1ccc(Cn2cc(Br)c(=O)[nH]c2=O)cc1 [Compound 58, 6-[4-(5-Bromo-2,4-dioxo-3,4-dihydro-2H-pyrimidin-1-yl-methyl)-phenyl]-hexanoic acid]
Ki ([1]; pH 7.4, read-out: Ki): 42 µM

Cc1cn(Cc2ccc(F)cc2)c(=O)[nH]c1=O [Compound 6, 5-Methyl-1-(4-fluoro-benzyl)-1H-pyrimidine-2,4-dione]
Ki [1, 5]: 45 µM

TMPKmt (M. tuberculosis TMPK) (Mycobacterium tuberculosis H37Rv)
Km [3]: 4.5 µM

Cc1cn(Cc2cccc(F)c2)c(=O)[nH]c1=O [Compound 7, 5-Methyl-1-(3-fluoro-benzyl)-1H-pyrimidine-2,4-dione]
Ki [1, 5]: 90 µM

COC(=O)CCCc1ccc(Cn2cc(C)c(=O)[nH]c2=O)cc1 [Compound 40a]
Ki ([1]; pH 7.4, read-out: Ki): 70 µM

O=c1[nH]c(=O)n(Cc2ccccc2)cc1Br [Compound 4, 5-Bromo-1-benzyl-1H-pyrimidine-2,4-dione]
Ki [1, 5]: 44 µM

Cc1cn(Cc2ccc(C#CCCO)cc2)c(=O)[nH]c1=O [Compound 30, 1-[4-(4-Hydroxy-but-1-ynyl)-benzyl]-5-methyl-1H-pyrimidine-2,4-dione]
Ki ([1]; pH 7.4, read-out: Ki): 86 µM

Cc1cn(Cc2ccc(CSCC(=O)O)cc2)c(=O)[nH]c1=O [Compound 63, 3-[4-(5-Methyl-2,4-dioxo-3,4-dihydro-2H-pyrimidin-1-ylmethyl)-benzylsulfanyl]-acetic acid]
Ki ([1]; pH 7.4, read-out: Ki): 15 µM

Cc1cn(Cc2ccc(Br)cc2)c(=O)[nH]c1=O [Compound 11, 5-Methyl-1-(4-bromo-benzyl)-1H-pyrimidine-2,4-dione]
Ki [1, 5]: 38 µM

Cc1cn(Cc2ccc(C#CCCCC(N)=O)cc2)c(=O)[nH]c1=O [Compound 53, 6-[4-(5-Methyl-2,4-dioxo-3,4-dihydro-2H-pyrimidin-1-yl-methyl)-phenyl]-hexyn-5-oic acid amide]
Ki ([1]; pH 7.4, read-out: Ki): 113 µM

Cc1cn(Cc2ccc(CCCCC(=O)O)cc2)c(=O)[nH]c1=O [Compound 45, 5-[4-(5-Methyl-2,4-dioxo-3,4-dihydro-2H-pyrimidin-1-yl-methyl)-phenyl]-pentanoic acid]
Ki ([1]; pH 7.4, read-out: Ki): 72 µM

N#Cc1cn(Cc2ccccc2)c(=O)[nH]c1=O [Compound 12]
Ki [1, 5]: 980 µM

Cc1cn(Cc2cccc(Cl)c2)c(=O)[nH]c1=O [Compound 10, 5-Methyl-1-(3-chloro-benzyl)-1H-pyrimidine-2,4-dione]
Ki [1, 5]: 44 µM

Cc1cn(Cc2ccc(CCCC(N)=O)cc2)c(=O)[nH]c1=O [Compound 40b]
Ki ([1]; pH 7.4, read-out: Ki): 139 µM

O=C(O)CCCc1ccc(Cn2cc(Cl)c(=O)[nH]c2=O)cc1 [Compound 39]
Ki ([1]; pH 7.4, read-out: Ki): 15 µM

Cc1cn(Cc2ccc(CCC(=O)O)cc2)c(=O)[nH]c1=O [Compound 2, 3-[4-(5-Methyl-2,4-dioxo-3,4-dihydro-2H-pyrimidin-1-ylmethyl)-phenyl]-propionic acid]
Ki [1, 5]: 68 µM

NC(=O)CCCCCc1ccc(Cn2cc(Cl)c(=O)[nH]c2=O)cc1 [Compound 62, 6-[4-(5-Chloro-2,4-dioxo-3,4-dihydro-2H-pyrimidin-1-yl-methyl)-phenyl]-hexanoic acid amide]
Ki [1]: 32 µM

Cc1cn(Cc2ccc(Cl)cc2)c(=O)[nH]c1=O [Compound 9, 5-Methyl-1-(4-chloro-benzyl)-1H-pyrimidine-2,4-dione]
Ki [1, 5]: 50 µM

B1: TMPKh (human TMPK) (Homo sapiens) (protein)
chain: MAARRGALIVLEGVDRAGKSTQSRKLVEALCAAGHRAELLRFPERSTEIGKLLSSYLQKKSDVEDHSVHLLFSANRWEQVPLIKEKLSQGVTLVVDRYAFSGVAFTGAKENFSLDWCKQPDVGLPKPDLVLFLQLQLADAAKRGAFGHERYENGAFQERALRCFHQLMKDTTLNWKMVDASKSIEAVHEDIRVLSEDAIRTATEKPLGELWK
Km [4]: 5 µM
